Entries after “also recorded” stand apart in the source; their conditions may differ.
Experiments:
[1] = target: T1, Aβ(1-42) ion channels (Homo sapiens, UniProt P05067); experiment: Functional ion channel inhibition assay, planar lipid bilayer (Example 7); assay type: biochemical; conditions: for Inhibition of de-novo Aβ ion channel formation: molar ratio to Aβ 1:1, added at the same time as 37 μM Aβ; for Rank of inhibitory effect on Aβ ion channel activity: repeated experiments
T1 construct: Aβ(1-42) (Biopeptides) was initially dissolved in deionized water at 1 mg/ml (221.5 μM); purchased Biopeptide, Inc.
T1 sequence (P05067 672-713 limits assumed): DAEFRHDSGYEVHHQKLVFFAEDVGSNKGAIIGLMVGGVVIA
Description: Functional Ion Channel Inhibition Assays: A functional assay has been developed to investigate the inhibition of neurotoxic ion channel activity of Aβ peptides in reconstituted membrane bilayers and in aneuronal cell line by small molecules. The assay is based on ultra-sensitive electrophysiological recordings of the ion channel activity of Aβ. This ion channel-activity assay is designed to determine whether small molecules that bind to Aβ fibrils will inhibit ion channel activity. Compounds that inhibit ion channel activity are likely candidates for therapeutics and diagnostic agents for amyloid-associated diseases. This Example presents results that nicotine, tannic acid, and Congo Red are able to inhibit the ion channel activity of Aβ oligomers in planar lipid bilayers.
1. The lipid mixture was made from POPE:POPG (Avanti Polar Lipids) at 25 mg/ml (1:1) in Heptane. The pretreatment lipid solution was POPE:POPG 20 mg/mL in Hexane.
2. The bilayer was formed in classic bilayer cups and chamber (Warner Instruments). This 2-part system consists of a black Delrin chamber and a cup of Delrin. Cups and chambers are designed such that addition of equal volumes to the cup and chamber (cis and trans sides) results in a balanced solution height, minimizing any pressure gradients across the bilayer membrane.
3. The bilayer was formed over a 250 μm hole in a partition separating two Delrin compartments, the so called “painting technique.” First, droplets of pretreatment lipid solution were placed on both sides of the hole, using 100 uL-Hamilton syringe. Once the droplet of hexane evaporates, both chambers (cis and trans) were symmetrically filled with 900 uL of buffer solution, 100 mM KH2PO4/K2HPO4 pH 7.4, at room temperature.
4. When the bilayer set-up was already in place with Ag/AgCl electrodes in Faraday cage (a bilayer workstation which provides critical shielding of electromagnetic interference from outside sources and isolate vibration), the lipid solution (POPE:POPG in Heptane) was painted directly over the hole by using a thin paintbrush. A researcher gently blew underneath the hole by using the Pasteur pipette to thin out the bilayer until the appropriate capacitance was obtained (80-120 pF).
5. A voltage of ±100 mV was applied for at least 10 minutes to test stability of lipid bilayer.
Aβ(1-42) (Biopeptides) was initially dissolved in deionized water at 1 mg/ml (221.5 μM), and stored at −20° C. The stock solution is aliquotted to sufficient amount for each time use (90 uL). After the stable bilayer is constituted, the Aβ(1-42) solution was added to the trans side of the chamber to obtain a final concentration of 37 μM. The solution was mixed well in the chamber under stirring for 5 minutes
Congo Red (Sigma) was dissolved in DI Water to achieve a concentration of 2.5 mg/ml (3.58 mM) as a stock solution. (−) Nicotine Hemasulfate (Sigma) was diluted to 1.89 mM in DI Water. Tannic Acid (Riedel-de Haen) was diluted to 20 mM in DI Water.
The solution of inhibitory molecule was added to cis and trans sides to make a desired final concentration (1:1 molar ratio) at the same time as Aβ.
For Nicotine, the solution was added after observing current activities of Aβ to obtain 1:1, 1:2, 1:3, 1:4 molar ratio.

[2] = target: T2, Aβ(1-42) ion channel activity (Homo sapiens, UniProt P05067); experiment: Planar lipid bilayer Aβ ion channel assay, Method 1 (POPE:POPG, pre-incubated Aβ); assay type: biochemical; conditions: for membrane lasts: Method 1, incubated at 4:1 with Aβ, average of experiments
T2 construct: Aβ(1-42) (Biopeptides) was initially dissolved in deionized water at 1 mg/ml (221.5 μM); purchased Biopeptide, Inc.
T2 sequence (P05067 672-713 limits assumed): as above
Method: […] The Aβ sample was pre-incubated at RT for 12-18 hours. The molecules of interest can be pre-incubated with Aβ sample at various concentrations.
Bilayer set-up and recording system: Planar lipid bilayer was formed by the so-called “painting technique” over a 250-μm aperture on a Delrin cup (Warner Instruments) separating two compartments (cis and trans) of a bilayer setup. A lipid mixture of 1-palmitoyl-2-oleoyl phosphatidyletanolamine (POPE): palmitoyl-oleyl-phosphatidylglycerol (POPG) (Avanti Polar Lipids), 1:1 at 25 mg mL-1 in heptane was applied to the aperture which is pre-treated with 2 μL of the same lipid mixture (20 mg mL^−1) in hexane on each side. The recording buffer in cis compartment is 100 mM K2HPO4/KH2PO4 pH 7.4, while in the trans compartment a buffer with pre-incubated Aβ overnight was used.

[3] = Octanol/PBS partition coefficient (log P), experimental; conditions: for logP: octanol/PBS buffer
Method: (§1) 15 μM solutions of small molecule are prepared in 5 mL PBS buffer. 5 mL of octanol is added to each aqueous solution of small molecule and the biphasic layers are mixed by rapid vortexing. The mixture is then centrifuged at 250×g to facilitate the formation of two clear layers. The layers are separated and the absolute concentrations of small molecules in each layer are quantified by measuring the absorbance of the layers at the appropriate nm for each compound. The molar extinction coefficient of the compound in octanol and PBS buffer is determined by comparison to standard calibration curves of known quantities of small molecules dissolved in octanol and PBS buffer. The partition coefficient is expressed as logarithm of the ratio of the concentration in octanol divided by the concentration in PBS (i.e., log P).

[4] = target: Aβ fibrils (anti-Aβ IgG) (Homo sapiens, UniProt P05067); conditions: for Emax: read-out: % Max Inhib.
Sequence of Aβ fibrils (anti-Aβ IgG) (P05067 672-713 limits assumed): as above

[5] = target: Aβ fibrils (binding of anti-Aβ IgG clone 6E10) (Homo sapiens, UniProt P05067); experiment: ELISA-based assay: inhibition of anti-Aβ IgG (clone 6E10) binding to Aβ fibrils; conditions: control experiments, FIG. 2 panel c
Sequence of Aβ fibrils (binding of anti-Aβ IgG clone 6E10) (P05067 672-713 limits assumed): as above

[6] = physchem
Method: as §1

[7] = target: T3, Aβ(1-40) ion channel activity (Homo sapiens, UniProt P05067); experiment: Planar lipid bilayer Aβ ion channel assay, Method 2 (POPE:DOPS, Aβ proteoliposomes); assay type: biochemical; conditions: for Small molecule concentration at which no ion channel activity is observed: Method 2, added after observing events
T3 construct: Aβ(1-40) (Biopeptide, Inc.) powder was initially solubilized lyophilized in DiH2O at 1 mg/mL; purchased Biopeptide, Inc
T3 sequence (P05067 672-711 limits assumed): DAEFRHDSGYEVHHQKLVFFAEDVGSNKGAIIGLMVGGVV
Method: Method 2: Planar lipid bilayer was formed by the so-called “painting technique” over a 250-μm aperture on a Delrin cup (Warner Instruments) separating two compartments (cis and trans) of a bilayer setup. A lipid mixture of 1-palmitoyl-2-oleoyl phosphatidyletanolamine (POPE) (Avanti Polar Lipids) and Dioleoylphosphatidylserine (DOPS) (Avanti Polar Lipids), 1:1 at 10 mg mL-1 in heptane was applied on the aperture which is pre-treated with 2 μL of the same lipid mixture in hexane on each side. Both compartments were filled symmetrically with 800 μL of 70 mM KCl, […]. A glass pipette with a smooth bent tip was used to blow air bubble under the aperture to thin out the droplet of lipid to obtain a planar lipid bilayer (with capacitance >80 pF). Membrane stability was determined by applying ±100 mV for 10 minutes and monitoring a constant current baseline without instabilities in current. The capacitance of the membrane was monitored throughout the experiment.
Monomerization of Aβ: Aβ powder (Biopeptide, Inc.) was initially solubilized in Hexafluoroisopropanol (HFIP) at 1 mM for 21 hours in a glass vial, with 3 times of vortexing throughout the incubation period. The solution was diluted with cold nanopure water (2:1 H2O:HFIP) vortexed, fractionated in desire amounts, and immediately frozon in a CO2/acetone bath. Each fraction was covered with parafilm that was punctured twice to allow solvent vapors to escape. The fractions were lyophilized for 2 days to obtain monomerized Aβ.
Preparation of Aβ proteoliposomes: Aβ(1-40) (Biopeptide, Inc.) powder was initially solubilized lyophilized in DiH2O at 1 mg/mL and stored in −80° C. before use. 20 μL of DOPS was evaporated in CHCl3 (10 mg mL^−1) under vacuum and formed liposomes using hydration method. After obtaining a thin film of lipid, 30 μL of 1M Potassium Aspartate pH 7.2 was added, followed by 5 minutes of bath sonication. The liposome suspension was then mixed with 20 μL of Aβ (1-40) solution (1 mg/mL) and sonicated for 5 minutes.
In order to promote fusion of Aβ proteoliposomes into the bilayer, an ionic gradient of 370 mM KCl was used on the cis side (the side of proteoliposome addition) and 70 mM KCl on the trans side of the bilayer setup. 10-20 μL of the Aβ proteoliposome solution was added to the cis compartment and stirred vigorously for 5-10 minutes. The molecules of interest can be tested by addition to the chamber after observing events.

SMILES: CN1CCCC1c1cccnc1 (single isomer, unassigned; (-)) [(−)-Nicotine]
- Time to almost complete disruption of preformed ion channels ([1]; 4-fold molar excess with respect to Aβ): ≤ 10 min
- Disruption of Aβ ion channel activity on addition at increasing concentration ([1]; added after observing Aβ current, 1:1 to 1:4 molar ratio, 37 μM Aβ): concentration-dependent disruption of Aβ ion channel activity
- Disruption of preformed Aβ ion channels ([1]; molar ratio nicotine to Aβ 4:1): disrupted preformed Aβ channels almost completely
- Inhibition of de-novo Aβ ion channel formation [1]: sufficient to inhibit the de-novo formation of Aβ ion channels; also recorded: did not result in ion channel activity during the entire test period (90 min)
- Rank of inhibitory effect on Aβ ion channel activity [1]: strongest inhibitory effect
- membrane lasts / membrane stability ([2]; Method 1, incubated at 2:1): (incubated at 2:1), unstable membrane
- Observe no ion channel activity in (experiments out of total) ([2]; Method 1, incubated at 4:1): Observe no ion channel activity in 4 out of 4
- membrane lasts [2]: (incubated at 4:1), membrane lasts ~70 minutes
- LogP expt'l ([3]; octanol/PBS): 0.20 ± 0.01
- % Max Inhib. ([4]; anti-Aβ IgG-Aβ fibril binding): 84%
- Conc at Max Inhib. ([4]; anti-Aβ IgG-Aβ fibril binding): 1,000 mM

SMILES: O=S(=O)([O-])c1ccc(O)c2ccccc12.[Na+] [1-naphthol-4-sulfonate]
- Inhibition of the interaction between the IgGs and Aβ fibrils (control compound) [5]: No inhibition

SMILES: c1cncc(C2CCCN2)c1 (stereo not shown) [Compound 7, Nornicotine]
- logP [3]: -0.93 ± 0.04
- Conc at Max Inhib. ([4]; anti-Aβ IgG-Aβ fibril binding): 700 mM
- Emax [4]: 98%

SMILES: CN1CCCC1c1cncc(Br)c1 (stereo not shown) [Compound 8, 5-Bromonicotine]
- logP [6]: 2.1 ± 0.3
- Conc at Max Inhib. ([4]; anti-Aβ IgG-Aβ fibril binding): 700 mM
- Emax [4]: 83%

SMILES: OCCOCCOCCOCCN1CCCC1c1cccnc1 (stereo not shown) [Compound 10, 2-(2-(2-(2-(2-(pyridin-3yl)pyrrolidin-1-yl)ethoxy)ethoxy)ethoxy)-ethanol]
- logP [3]: -0.41 ± 0.05
- Conc at Max Inhib. ([4]; anti-Aβ IgG-Aβ fibril binding): 100 mM
- Emax [4]: 81%

SMILES: CN1CCC[C@H]1COC(=O)c1cccnc1 [Compound 13, (s)-1-Methylpyrrolidine-2-methyl nicotinate]
- logP [3]: -0.5 ± 0.02
- Conc at Max Inhib. ([4]; anti-Aβ IgG-Aβ fibril binding): 50 mM
- Emax [4]: 54%

SMILES: CN1CCC[C@H]1COC(=O)c1cncc(Br)c1 [Compound 14]
- Conc at Max Inhib. ([4]; anti-Aβ IgG-Aβ fibril binding): 50 mM
- Emax [4]: 68%

SMILES: CN1CCCC1COC(=O)c1ccccn1 (stereo not shown) [Compound 15, (s)-1-Methylpyrrolidine-2-methyl picolinate]
- logP [3]: 0.69 ± 0.08
- Conc at Max Inhib. ([4]; anti-Aβ IgG-Aβ fibril binding): 50 mM
- Emax [4]: 51%

SMILES: Nc1c(/N=N/c2ccc(-c3ccc(/N=N/c4cc(S(=O)(=O)O)c5ccccc5c4N)cc3)cc2)cc(S(=O)(=O)O)c2ccccc12 [Congo Red]
- Rank of inhibitory effect on Aβ ion channel activity [1]: then by Congo Red

SMILES: COc1cc(/C=C/C(=O)CC(=O)/C=C/c2ccc(O)c(OC)c2)ccc1O [Curcumin]
- Observe no ion channel activity in (experiments out of total) ([2]; Method 1, incubated at 2:1): Observe no ion channel activity in 3 out of 6
- membrane lasts / membrane stability ([2]; Method 1, incubated at 2:1): (incubated at 2:1), membrane lasts ~50 minutes

SMILES: Cl.NCCc1ccc(O)c(O)c1 [Dopamine HCl]
- Observe no ion channel activity in (experiments out of total) ([2]; Method 1, incubated at 4:1): Observe no ion channel activity in 3 out of 4
- membrane lasts [2]: (incubated at 4:1), membrane lasts ~70 minutes

SMILES: NC[C@H](O)c1ccc(O)c(O)c1.O.O=C(O)C(O)C(O)C(=O)O [L-(−)-norepinephrine (+)-bitartrate salt monohydrate]
- Small molecule concentration at which no ion channel activity is observed [7]: Observe no ion channel activity at 50 μM small

SMILES: N[C@@H](Cc1ccc(O)c(O)c1)C(=O)O [L-DOPA]
- Membrane observation ([7]; Method 2, 50 μM small molecule): molecule, membrane broke
- Small molecule concentration at which no ion channel activity is observed [7]: Observe no ion channel activity at 50 μM small

SMILES: CNCCc1ccc(O)c(O)c1.Cl [N-methyl dopamine hydrochloride]
- Small molecule concentration at which no ion channel activity is observed [7]: Observe no ion channel activity at 450 μM small

SMILES: O=C([O-])c1ccccc1O.[Na+] [Salicylic Acid sodium salt]
- Observe no ion channel activity in (experiments out of total) ([2]; Method 1, incubated at 4:1): Observe no ion channel activity in 3 out of 3
- membrane lasts [2]: (incubated at 4:1), membrane lasts ~45 minutes

SMILES: O=C(OC[C@H]1O[C@@H](OC(=O)c2cc(O)c(O)c(OC(=O)c3cc(O)c(O)c(O)c3)c2)[C@H](OC(=O)c2cc(O)c(O)c(OC(=O)c3cc(O)c(O)c(O)c3)c2)[C@@H](OC(=O)c2cc(O)c(O)c(OC(=O)c3cc(O)c(O)c(O)c3)c2)[C@@H]1OC(=O)c1cc(O)c(O)c(OC(=O)c2cc(O)c(O)c(O)c2)c1)c1cc(O)c(O)c(OC(=O)c2cc(O)c(O)c(O)c2)c1 [Tannic Acid]
- Inhibition of de-novo Aβ ion channel formation [1]: inhibited ion channel activity of Aβ
- Observe no ion channel activity in (experiments out of total) ([2]; Method 1, incubated at 4:1): Observe no ion channel activity in 3 out of 5
- membrane lasts [2]: (incubated at 4:1), membrane lasts ~75 minutes

Reference: patent US20100260671A1, “COMPOUNDS AND METHODS FOR THE DIAGNOSIS AND TREATMENT OF AMYLOID ASSOCIATED DISEASES” (THE REGENTS OF THE UNIVERSITY OF CALIFORNIA, priority 2007, published 2010)
